Source: paper PMC11904948, “Peptide‐Drug Conjugate for Therapeutic Reprogramming of Tumor‐Associated Macrophages in Breast Cancer” (Advanced Science, 2025)

Key:
[1] = test system: mouse bone marrow‐derived macrophages (BMDM); experiment: Phagocytosis of live 4T1-GFP cancer cells by BMDM; format: cell-based; conditions: Balb/c BMDM, 10 µM 4 h, washed, 48 h, then 2 h with 4T1-GFP cells, n = 3
Protocol: We then analyzed if MACTIDE‐V affected the phagocytic activity of BMDM in vitro.
For the live 4T1‐GFP phagocytosis assay, 4T1‐GFP cells were cultured in RPMI1640 supplemented with 10% (v/v) FBS and 1% penicillin/streptomycin at 37 °C, 5% CO2. BMDM were seeded on Ibidi plates (Ibidi, cat# 80821) and at day 5 were treated with MACTIDE and conjugates as previously described (10 µM during 4h, followed by washing with media). Then, 48h later, the BMDM were incubated for 2 h with 2×10^5 4T1‐GFP cells (the area of the wells is 1 cm^2). Then, the supernatant was removed, and the wells were washed with media and then with PBS. Then, the cells were fixed with ice‐cold acetone for 10 min. Fixed cells were then washed with PBS, permeabilized with PBS‐0.2% Triton for 10 min and washed with PBS‐T (PBS+0.05% Tween‐20 (v/v)), and then incubated with blocking buffer (5% BSA (w/v), 5% FBS (v/v) in PBS‐T) for 1 h at room temperature. […] The mean GFP signal intensity was quantified from the images using ImageJ and normalized to the amount of DAPI^+ nuclei.
Figure S4. […] Scale bars= 50µm.The mean GFP signal intensity was quantified from the images using ImageJ and normalized to the amount of DAPI^+ nuclei (right panel). […]

[2] = test system: IL‐4‐stimulated primary human macrophages; experiment: In vitro photodynamic therapy, MTT viability, IL-4-stimulated macrophages; format: cell-based; conditions: 30 µM 1 h 37 °C, washed
From the text: We next coupled MACTIDE to the photosensitizer Verteporfin, intending to deplete CD206^+ TAM using photodynamic therapy (PDT). To this end, carboxy‐Verteporfin was coupled to the N‐terminus of MACTIDE, a construct referred to as “MACTIDE‐V” (Figure 5A). We performed in vitro photodynamic therapy with MACTIDE‐V on primary human macrophages stimulated with IL‐4 or LPS + IFNγ.
Figure 5 In vitro and in vivo photodynamic therapy with MACTIDE‐V. A) Structure of MACTIDE‐V. B) MACTIDE‐V, CtrlPep‐V, and DOX were incubated with primary human macrophages (obtained from monocytes derived from human blood buffy coat) at 30 µM for 1 h at 37 °C, followed by 2 washes with media. Then, the groups shown in pink were irradiated with 10 J cm^−2 (irradiance: 170 mW cm^−2, spot diameter: 0.5 cm). […] Peptide‐V conjugates were administered i.p. at a dose of 30 nmol (1 mg Kg^−1 in Verteporfin). For the irradiated groups, 4 h after administration of conjugates or PBS, the mice were irradiated with 100 J cm^−2; shown is primary tumor volume progression during treatment. Gray arrows indicate injection days. D) Bodyweight during the treatment as % of the initial one. E) Representative mIHC images of PBS, CtrlPep‐V, and MACTIDE‐V‐treated tumors, 20X magnification, scale bar = 100 µm, white triangles point to Foxp3^+ cells. F) CD8^+ T cells, CD4^+ T cells, and Treg density, n = 6 mice/group, with every dot representing the mean cell density of each tumor obtained from 20 images. G) CD8^+ T cells density in CK8^+‐dense tumor regions. n = 5 mice/group, with every dot representing the mean cell density of each tumor obtained from 20 images. Median ± interquartile range. One‐way ANOVA with multiple comparisons, ^* p ≤ 0.05, ^** p ≤ 0.01.
Human peripheral mononuclear cells (PBMCs) were purified from human blood buffy coats following the protocol described previously.^[ [24] ^] […] Crystal formation was monitored every 20–30 min to not oversaturate the absorbance values.

Substance | phagocytosis of live 4T1 cancer cells labeled with GFP [1] | toxicity with and without irradiation ([2]; with or without 10 J cm^−2, 48 h) | macrophages depleted, irradiated ([2]; irradiated 10 J cm^−2 (689 nm), 48 h, n = 6) | toxicity, non‐irradiated ([2]; no irradiation, 48 h, n = 6)
Vert‐Ahx‐AKPCGS‐OH [CtrlPep‐V, reference compound] | negligible phagocytosis | no toxicity |  | 
Vert‐Ahx‐G(CTKSIPPIC)SPGAK‐OH (disulfide) [MACTIDE‐V] | cancer cell phagocytosis only in the MACTIDE‐V treated BMDM |  | 80% | no toxicity
